Each structure is given as a SMILES string. In brackets after ≈: the same amount, converted by molar mass. Where only a bound is given, the exact number is not on record here.

The conditions of this data set: buffer; pH 7.4; 200.0 µM.
As usually defined, the kinetic solubility is the concentration staying in solution when a stock, usually in DMSO, is diluted into the medium. Compound `COc1cc(/C=C(\C#N)C(=O)NC(C)C)cc(Cl)c1O` gave a kinetic solubility of 28.4 µg/mL (≈ 96.4 µM). On to `Cn1c(=O)n(C)c2cc(NC(=O)c3ccc(F)cc3)c(Br)cc21`, for which the kinetic solubility stood at 8.2 µg/mL (≈ 21.7 µM).

For `O=C(NCc1ccc(Cl)cc1)C1CCC(=O)N(C2CC2)C1` (centres undefined), the solubility (kinetic) is greater than 46 µg/mL. In turn, `COc1cccc(C(=O)N2CCC(C(=O)N3CCN(C)CC3)CC2)c1` registered a kinetic solubility greater than 51.8 µg/mL.

For the compound `O=C(/C=C/c1ccc(F)cc1)NC(=S)Nc1ccccc1`, the solubility (kinetic) worked out at 1.3 µg/mL (≈ 4.33 µM). Consider `NC(Cc1c[nH]c2ccccc12)C(=O)NCc1ccco1` (centres undefined), for which the kinetic solubility is greater than 42.5 µg/mL. Regarding `Cn1c(O)c(C=NCCN2CCOCC2)c(=O)[nH]c1=S`, the solubility (kinetic) was greater than 44.8 µg/mL. In the case of `COc1cc(CCC(=O)NCC2CCCO2)cc(OC)c1OC` (centres undefined), the solubility (kinetic) amounted to 44 µg/mL (≈ 136 µM).

Compound `Fc1ccc(-n2cc(-c3ccccc3)[n+]3c2SCC3)cc1.[Br-]` came in with a solubility (kinetic) greater than 56.6 µg/mL. Compound `O=C(COc1ccc(-n2ccnc2)cc1)Nc1cccc(F)c1` showed a solubility (kinetic) of 31.1 µg/mL (≈ 99.9 µM). The compound `CN1CCC(OC(=O)c2ccco2)CC1.Cl` registered a kinetic solubility greater than 36.9 µg/mL. The compound `Cc1cccc(NC(=O)Cc2ccc(Br)cc2)n1` registered a solubility (kinetic) of 38.6 µg/mL (≈ 126 µM). Take `N#C/C(=C\c1ccccc1)C(=O)OCC(=O)N1CCCC1`: the kinetic solubility was greater than 42.6 µg/mL. `O=C(N/N=C/c1c[nH]c2ccccc12)c1ccccc1O` yielded a solubility (kinetic) greater than 41.9 µg/mL.

Regarding `COc1ccc(OC)c(C(O)c2nc3ccccc3n2C)c1` (centres undefined), the solubility (kinetic) is greater than 44.8 µg/mL.

`Cc1cccn(Cc2c(F)cccc2Cl)c1=O` returned a kinetic solubility greater than 37.8 µg/mL.

On to `CCOC(=O)c1sc(=NC(=O)c2ccc(Cl)s2)n(C)c1C`, for which the kinetic solubility was 0.5 µg/mL (≈ 1.45 µM). As to `O=C(O)CC1(CC(=O)NCc2ccc(Cl)cc2)CCCCC1`, the solubility (kinetic) was greater than 48.6 µg/mL. `Cc1ccc(C(=O)Nc2cccc3ccccc23)o1` displayed a kinetic solubility of 25.9 µg/mL (≈ 103 µM). The same measure for `COC(=O)Nc1c(-c2ccccc2)nc2ccc(Cl)cn12`: 2.2 µg/mL (≈ 7.29 µM); for `COC(=O)[C@H](Cc1ccccc1)NC(=O)NCc1ccc(C)cc1`: greater than 49 µg/mL; for `O=c1onc(-c2ccccc2)c2ccccc12`: 27.7 µg/mL (≈ 124 µM).

As for `COc1ccc(NC(=O)NC2(C(=O)N3CCCC(C)C3)CCCCC2)cc1` (centres undefined), the kinetic solubility amounted to 36.2 µg/mL (≈ 96.9 µM).

For the compound `O=c1cc(-c2ccccc2)c2cc(Cl)ccc2[nH]1`, the solubility (kinetic) is less than 0.5 µg/mL. Compound `Cc1cccc(N2C(=O)NC(=O)/C(=C\C=C\c3ccco3)C2=O)c1` yielded a solubility (kinetic) of 39.2 µg/mL (≈ 122 µM). `CC1CCCCC12NC(=O)N(CC(=O)OCc1c(F)cccc1Cl)C2=O` (centres undefined): the kinetic solubility was found to be 53.3 µg/mL (≈ 139 µM). With `CCCC1C(=O)N(Cc2ccccc2)C(=O)CC1C` (centres undefined), the solubility (kinetic) was 31.1 µg/mL (≈ 120 µM). As for `CS(=O)(=O)Nc1ccccc1C(=O)NCCSc1ccccc1`, the solubility (kinetic) was 51 µg/mL (≈ 146 µM). Consider `O=C(c1cccc([N+](=O)[O-])c1)c1ccc2c(c1)OCCOCCOCCO2`, for which the kinetic solubility is greater than 56 µg/mL. As for `Fc1ccc(NC(=S)Nc2cccnc2)c(F)c1F`, the solubility (kinetic) is greater than 42.5 µg/mL. With `Cc1cc(NC(=O)CSc2nc3ccccc3n2CC(C)C)no1`, the kinetic solubility amounted to 7.3 µg/mL (≈ 21.2 µM). With `CC(C(=O)N1CCN(c2ccccc2F)CC1)c1ccc([N+](=O)[O-])cc1` (centres undefined) the figure was 38.8 µg/mL (≈ 109 µM); with `Cc1ccc(CONC(=O)c2ccccc2Cl)cc1`, greater than 41.4 µg/mL; with `O=C(COCc1cc(-c2ccco2)on1)NC1CCCCC1`, 42.4 µg/mL (≈ 139 µM).

With `O=C(COC(=O)c1ccco1)NCc1ccc(Cl)cc1`, the kinetic solubility worked out at 16.4 µg/mL (≈ 55.8 µM). Compound `O=C(c1ccc([N+](=O)[O-])cc1)N1CCN(C(=O)C2CCCCC2)CC1` had a kinetic solubility greater than 51.8 µg/mL. The same measure for `O=C(O)C1=NN(c2ccccc2)C(=O)C1`: greater than 30.6 µg/mL; for `COc1cccc(SCC2CSc3nc4ccccc4c(=O)n32)c1` (centres undefined): greater than 53.5 µg/mL.

The compound `CCC(=O)N1CC(=O)Nc2ccc(F)cc2C1c1ccc(F)cc1` (centres undefined) came in with a solubility (kinetic) greater than 49.6 µg/mL. With `COc1cc(C(=O)Nc2cccc(C(C)=O)c2)cc(OC)c1OC` the figure was greater than 49.4 µg/mL. With `S=C(Nc1cccnc1)N1CCN(c2ccccc2Cl)CC1` the figure was 44.2 µg/mL (≈ 133 µM). Compound `CC(NC(=O)c1cc(F)c(F)cc1Cl)c1ccncc1` (centres undefined) returned a solubility (kinetic) greater than 44.5 µg/mL. For the compound `CCOC(=O)c1ccc(NC(=S)NCCCn2ccnc2)cc1`, the solubility (kinetic) is greater than 49.9 µg/mL.

As for `COc1ccccc1C(=O)Nc1sc2c(c1C#N)CCC2`, the kinetic solubility was determined as 0.5 µg/mL (≈ 1.68 µM). With `O=C(CSc1ccc(Cl)cc1)Nc1ccc(C2SCCS2)cc1` the figure was 1 µg/mL (≈ 2.62 µM); with `Cc1ccc(C(=O)NC2CC3CCC(C2)N3)cc1` (centres undefined), greater than 36.7 µg/mL. The compound `COc1cccc(NC(=O)NCc2c(-c3ccccc3)noc2C)c1` came in with a solubility (kinetic) of 2.4 µg/mL (≈ 7.11 µM). `CCc1noc(C)c1C(=O)Nc1nc(-c2ccc(F)cc2)c(C)s1`: the kinetic solubility turned out to be 0.3 µg/mL (≈ 0.869 µM). In turn, `Cc1ccc(C(=O)NC(=S)N2CCN(C)CC2)cc1Br` gave a kinetic solubility of 47.4 µg/mL (≈ 133 µM). Compound `CC(=O)c1sc(=S)n(-c2ccccc2)c1C` came in with a solubility (kinetic) of 9.4 µg/mL (≈ 37.7 µM).

`CCCCn1c(N)c(C(=O)NCc2cccs2)c2nc3ccccc3nc21` returned a solubility (kinetic) of 1.6 µg/mL (≈ 4.22 µM). With `CCN(C(=O)CSc1nccc(=O)[nH]1)C1CCCCC1` the figure was greater than 44.3 µg/mL; with `COc1ccc(NC(=O)CN(C)C(=O)c2ccccc2OC)cc1`, greater than 49.3 µg/mL; with `O=C(CNC(=O)c1ccc(Cl)cc1)c1ccc(Br)cc1`, less than 0.8 µg/mL.

In turn, `CCN(CC)C(=O)c1c(-c2ccccc2)oc2ccc(O)cc12` returned a kinetic solubility of 31.8 µg/mL (≈ 103 µM). In the case of `O=C(CCC(=O)c1cccs1)NCc1cccc(Cl)c1`, the solubility (kinetic) is greater than 46.2 µg/mL. Turning to `CC1NC(=S)N(C2CCCCC2)C1=O` (centres undefined), the solubility (kinetic) is greater than 31.8 µg/mL.

In the case of `CCCCn1c(N)c(N(CCC(C)C)C(=O)COC(=O)c2ccc([N+](=O)[O-])s2)c(=O)[nH]c1=O`, the solubility (kinetic) worked out at 25.1 µg/mL (≈ 52.1 µM). The compound `CC1Sc2ccc(C(=O)NCc3ccccn3)cc2NC1=O` (centres undefined) gave a solubility (kinetic) of 45.6 µg/mL (≈ 146 µM). On to `CCCC(C)NC(=O)CN1C(=O)NC2(CCc3ccccc32)C1=O` (centres undefined), for which the kinetic solubility is greater than 49.4 µg/mL. Compound `O=[N+]([O-])c1cc(CSC2=NCCN2)ccc1O` gave a kinetic solubility of 37.1 µg/mL (≈ 146 µM). `O=C(Cn1cnc([N+](=O)[O-])c1)Nc1ccc(F)c(Cl)c1` showed a kinetic solubility of 5 µg/mL (≈ 16.7 µM). In turn, `COc1ccc(CNC(=O)CN(C)S(=O)(=O)c2ccccc2)cc1` had a solubility (kinetic) greater than 52.3 µg/mL. `OCCCc1cn(Cc2ccccc2)c2ccccc12` registered a solubility (kinetic) of 22.9 µg/mL (≈ 86.3 µM). Consider `COc1ccc2cc(C(C)C(=O)N3CCC(C)CC3)ccc2c1` (centres undefined), for which the kinetic solubility turned out to be 18.8 µg/mL (≈ 60.4 µM). In the case of `CC1CC(C#N)N(N(C)C)C1=C(C#N)C#N` (centres undefined), the kinetic solubility is greater than 32.3 µg/mL. Take `CC(=O)c1ccc(/C=C/c2nc3ccccc3n2C)o1`: the kinetic solubility is greater than 39.9 µg/mL. As for `O=C(/C=C/Nc1ccc(S(=O)(=O)Nc2ncccn2)cc1)c1cccs1`, the kinetic solubility came out at 6.7 µg/mL (≈ 17.3 µM). With `Cc1cccc(Nc2c3c(nc4ccccc24)CCC3)c1.Cl` the figure was 44.9 µg/mL. The same measure for `CCOC(=O)c1sc(=NC(=O)c2c(F)cccc2F)n(C)c1C`: 0.9 µg/mL (≈ 2.64 µM); for `CC(NC(=O)c1ccco1)c1ccc2c(c1)OCO2` (centres undefined): greater than 38.9 µg/mL; for `CC(C)[C@H](NC(=O)NCCC1=CCCCC1)C(=O)O`: greater than 40.3 µg/mL. With `Cc1ccc(OCC(=O)Nc2cc(C)on2)c([N+](=O)[O-])n1`, the kinetic solubility came to 18 µg/mL (≈ 61.6 µM). `Nc1cccc(C(=O)NCCNC(=O)c2cccc(N)c2)c1` came in with a kinetic solubility greater than 44.8 µg/mL.

`O=C(CN1N=C(c2ccccc2)CCC1=O)NCc1ccccc1` had a kinetic solubility greater than 48.2 µg/mL. With `CCc1cc(=O)[nH]c(SCc2cccc3ccccc23)n1` the figure was 2.8 µg/mL (≈ 9.45 µM); with `O=C(NC1CCN(Cc2ccc(Cl)c(Cl)c2)CC1)c1ccccc1`, 1.9 µg/mL (≈ 5.23 µM); with `Cc1ccc(S(=O)(=O)NC(=S)c2ccccc2)cc1`, greater than 43.7 µg/mL. The same measure for `Cc1ccc(-n2ccnc2SCC(=O)O)cc1C`: greater than 39.3 µg/mL. With `O=S(=O)(NC1CN2CCC1CC2)c1ccc(Cl)cc1` (centres undefined) the figure was 42.6 µg/mL (≈ 142 µM); with `CC(C)=CC(=O)Nc1cccc(S(=O)(=O)NC2=NCCCCC2)c1`, greater than 52.4 µg/mL.

In turn, `O=C(O)C1CSC2(c3ccc(F)cc3)CCC(=O)N12` (centres undefined) came in with a kinetic solubility greater than 42.2 µg/mL. Consider `CN1CCN(c2ccc(CNS(=O)(=O)c3cccc(F)c3)cc2)CC1`, for which the solubility (kinetic) was 6.7 µg/mL (≈ 18.4 µM). Compound `O=C(NCc1ccc(F)cc1)N1CCc2ccccc2C1` registered a solubility (kinetic) of 39.3 µg/mL (≈ 138 µM). Regarding `O=C(CCn1ccnc1)Nc1cc(Cl)ccc1O`, the kinetic solubility was greater than 39.9 µg/mL. `CO/N=C(\N)c1nonc1N` returned a solubility (kinetic) of 20.1 µg/mL (≈ 128 µM).

Turning to `Cc1ccc2oc(C(=O)NCC3CCOCC3)c(C)c2c1`, the kinetic solubility worked out at 42.8 µg/mL (≈ 149 µM).

On to `Cc1ccc2c(COC(=O)C3CC(=O)N(c4ccc5c(c4)OCCO5)C3)cc(=O)oc2c1` (centres undefined), for which the solubility (kinetic) was 19.6 µg/mL (≈ 45 µM). The compound `O=C(Oc1ccc(C(=S)N2CCOCC2)cc1)c1cccc([N+](=O)[O-])c1` came in with a solubility (kinetic) of less than 0.4 µg/mL. Consider `O=C(COC(=O)CNC(=O)c1ccccc1F)NCC(F)(F)F`, for which the kinetic solubility is greater than 50.4 µg/mL.

In the case of `Cc1cc(=O)oc2cc(Oc3ncccc3[N+](=O)[O-])ccc12`, the solubility (kinetic) came out at 2 µg/mL (≈ 6.71 µM). Regarding `CCc1ccccc1NC(=O)N1CCc2ccccc2C1`, the solubility (kinetic) is greater than 42.1 µg/mL. `COc1ccccc1Oc1ncnc2sccc12`: the solubility (kinetic) is greater than 38.7 µg/mL. Turning to `Cc1cccc(C)c1OCC(=O)Nc1ccncc1`, the kinetic solubility worked out at 21.8 µg/mL (≈ 85.1 µM). With `Cc1cc(C(C)(C)C)cc(S(=O)(=O)Nc2ccc(C(=O)O)cc2)c1C` the figure was 40.8 µg/mL (≈ 113 µM); with `C#CCn1c(-c2cccs2)nc2ccccc21`, greater than 35.7 µg/mL; with `CCN1CCN(C(=O)c2cc3cc(F)ccc3[nH]2)CC1`, 36.4 µg/mL (≈ 132 µM). The same measure for `CCOc1ccc(N2C(=O)/C(=C/c3ccccn3)SC2=S)cc1`: less than 0.4 µg/mL; for `O=C(Cn1cc([N+](=O)[O-])ccc1=O)N1CCc2ccccc21`: 11.3 µg/mL (≈ 37.8 µM). With `O=C(CNC(=O)C1CCCC1)Nc1ccccc1Br`, the solubility (kinetic) is greater than 48.8 µg/mL. In turn, `CC(=O)c1cn(-c2ccc([N+](=O)[O-])cc2)c(=O)n(C)c1=O` gave a solubility (kinetic) greater than 43.4 µg/mL. As for `COc1ccc(/C(C)=N\O)cc1OC`, the solubility (kinetic) was 16.9 µg/mL (≈ 86.6 µM). As for `Cc1ccc(C)c2nc(Cl)c(C#N)cc12`, the solubility (kinetic) was less than 0.2 µg/mL.

The compound `COCCNC(=O)Cn1cc(C(=O)c2ccco2)c2ccccc21` showed a solubility (kinetic) greater than 49 µg/mL.

These data come from PubChem BioAssay AID1996.
